In patent publication US20240124460A1, “METHODS AND COMPOSITIONS FOR TARGETED PROTEIN DEGRADATION” (Ranok Therapeutics (Hangzhou) Co. Ltd., priority 2020, published 2024):

Experiments:
HSP90α protein [1] = target: T1, HSP90α protein (Homo sapiens, UniProt P07900); assay: HSP90α-binding FP (FITC) assay; details: FP competition with FITC-geldanamycin
T1 construct: purchased BPS Bioscience #50298
Experimental: Binding of test compounds to HSP90α protein was measured by fluorescent polarization (FP) using the HSP90α (N-terminal) Assay Kit (BPS Bioscience, #50298), following the manufacturer's instructions, except as noted. Fluorescently labeled HSP90-binding compounds, either the provided FITC-geldanamycin (5 nM final concentration) or RNK04010, a triazolone-based HSP90 binding small molecule labeled with BODIPY through a piperazine-phenyl linker (5 nM final concentration) were employed. A 2.5-fold serial dilution of each test compound ranging from 20 μM to 5.2 nM was assayed for binding to HSP90α. After the final step of adding HSP90α protein to each assay well, plates were mixed by brief shaking, incubated at 25° C. for 120 min for FITC-geldanamycin or 300 min for RNK04010, and fluorescence was measured using a PerkinElmer EnVision Plate Reader.

ERBB2 = ERBB2 (HER2) flow cytometry protein degradation assay in BT-474 cells; type: cell-based, human; details: DC50, BT-474 cells, 24 hr
Outline: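 BT-474 cells trypsinised after compound treatment and stained with PE-conjugated anti-ERBB2 antibody, 30 min at 25° C in the dark, then fixed in 1% paraformaldehyde for flow cytometry. % inhibition = 100−(D−B)/(S−B)*100, using treated, untreated-stained and unstained cell fluorescence.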

[2] = test system: MV-4-11 human acute myeloid leukemia; assay: MV-4-11 CCK-8 proliferation assay; type: cell-based; details: Homo sapiens, MV4-11; MV-4-11 cells, 72 hr
Outline: (§1)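 CCK-8 absorbance read-out, with inhibition expressed against DMSO-treated cells after subtracting a cell-free DMSO medium blank. Compounds tested over a 3-fold dilution series spanning 20 μM to 1.02 nM; lines grown essentially as ATCC recommends.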

[3] = test system: U-87 MG human glioblastoma; assay: U87 MG CCK-8 proliferation assay; type: cell-based; details: Homo sapiens, U-87 MG, 72 h, U-87 MG cells, read-out: U87MG CCK-8
Outline: as §1

MAPK7 [4] = target: T2, MAPK7 (Homo sapiens, UniProt Q13164); assay: MAPK7 Western blot protein degradation assay in U-87 MG cells; type: cell-based; design: U-87 MG human glioblastoma cells, which express MAPK7; endogenous in cells; host or cells: U-87 MG; details: 48 hr
T2 sequence (Q13164 whole entry): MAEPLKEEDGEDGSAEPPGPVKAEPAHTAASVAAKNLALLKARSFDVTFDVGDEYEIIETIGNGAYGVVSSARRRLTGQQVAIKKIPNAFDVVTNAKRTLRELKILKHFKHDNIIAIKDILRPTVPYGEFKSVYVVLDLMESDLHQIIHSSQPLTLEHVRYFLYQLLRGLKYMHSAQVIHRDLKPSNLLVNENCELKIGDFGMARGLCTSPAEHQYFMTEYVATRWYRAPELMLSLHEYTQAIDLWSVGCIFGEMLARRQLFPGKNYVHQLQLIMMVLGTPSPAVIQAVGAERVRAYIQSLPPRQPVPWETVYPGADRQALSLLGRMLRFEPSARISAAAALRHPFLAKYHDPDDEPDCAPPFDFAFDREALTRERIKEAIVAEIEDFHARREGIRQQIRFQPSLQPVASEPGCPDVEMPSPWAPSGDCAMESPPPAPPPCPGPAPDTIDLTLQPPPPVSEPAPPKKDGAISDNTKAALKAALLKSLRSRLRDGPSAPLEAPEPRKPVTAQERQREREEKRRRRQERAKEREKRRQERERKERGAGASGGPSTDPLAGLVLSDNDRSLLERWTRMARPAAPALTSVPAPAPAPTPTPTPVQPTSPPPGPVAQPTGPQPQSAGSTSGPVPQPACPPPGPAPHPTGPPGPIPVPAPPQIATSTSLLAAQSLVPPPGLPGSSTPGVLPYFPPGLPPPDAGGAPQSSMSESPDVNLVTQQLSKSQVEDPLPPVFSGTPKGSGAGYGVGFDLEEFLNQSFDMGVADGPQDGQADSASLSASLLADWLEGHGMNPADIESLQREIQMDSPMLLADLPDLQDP
Experimental: U-87 MG human glioblastoma cells were seeded in 6- or 12-well tissue culture plates, and after 1 hr, test compounds were added at various concentrations and incubated at 37° C./5% CO2 for 48 hr. Cells were then washed with cold PBS, aspirated and cold RIPA buffer containing a protease/phosphatase inhibitor cocktail was added to lyse cells. After centrifugation, the total protein concentrations of cell lysates were determined using the BCA protein assay. Samples were normalized for equivalent protein concentrations, 5×SDS-PAGE loading buffer added and denatured at 100° C. for 10 min. 20 μl of each sample/well was loaded on a SDS-PAGE gel and electrophoresed for 20 min at 80 V, then 120 V for 1.5 hr. Gels were then electroblotted to nitrocellulose membranes using a wet-transfer method at 250 mA for 2.5 hr. Membranes were incubated with blocking buffer for 1 hr and washed 3 times with TBST for 5 min. Membranes were then incubated with anti-MAPK7 (anti-ERK5; Cell Signaling Technology, #12950) and anti-3-Actin (Cell Signaling Technology, #3700) monoclonal antibodies diluted in blocking buffer at 4° C. overnight per the manufacturer's recommendations. After washing 3 times, blots were incubated with appropriately labeled secondary antibodies for 1 hr at room temperature and washed again. Fluorescence imaging and quantitation was performed using a LI-COR Odyssey. Results was analyzed using GraphPad Prism 7 software.

HSP90α protein [5] = target: T1, HSP90α protein; assay: HSP90α-binding FP (BODIPY) assay; details: FP competition with BODIPY-labeled RNK04010
Outline: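 Fluorescence polarization measured competition with N-terminal human HSP90α, using either FITC-geldanamycin or BODIPY-labelled triazolone RNK04010 as tracer (5 nM final each). Compounds were tested in 2.5-fold dilutions from 20 μM to 5.2 nM, with incubation at 25 °C for 120 min (FITC) or 300 min (BODIPY).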

MAPK7 [6] = target: T2, MAPK7; assay: MAPK7 kinase assay (ADP-Glo); type: biochemical; design: purchased Carna Biosciences #04-146; details: ATP 340 μM
Experimental: The inhibition of MAPK7 kinase activity by test compounds was measured by the ADP-Glo Kinase Assay (Promega, #V6930), following the manufacturer's instructions, except as noted. 3-fold serial dilutions of each test compound were prepared ranging from 50 μM to 2.54 nM. Also, as a positive control, a 4-fold serial dilution of the MAPK7 inhibitor, XMD17-109 (MedChemExpress, #HY-15665) was prepared ranging from 10 μM to 0.04 nM. In brief, in 384-well plates, test compounds were added to the kinase reaction mix containing recombinant MAPK7 protein (Carna Biosciences, #04-146; 20 nM final concentration), myelin basic protein (SignalChem Biotech, #M42-54G; 0.1 mg/ml final concentration) and ATP (340 μM final concentration), then mixed by shaking and incubated with ADP-Glo Reagent and Kinase Detection Reagent. Luminescence was measured on a BioTek plate reader.
Lumpositive: The average ratio for 10 wells of positive controls (10 μM XMD17-109) across the plate.
Lumvehicle: The average ratio for 10 wells of negative controls (0.5% DMSO) across the plate.

Row | IC50 (HSP90α protein [1]) | EC50 [2] | EC50 [3] | MAPK7 degradation (30 nM) (MAPK7 [4]; 30 nM) | MAPK7 degradation (100 nM) (MAPK7 [4]; 100 nM) | MAPK7 degradation (1000 nM) (MAPK7 [4]; 1000 nM) | IC50 (HSP90α protein [5]) | IC50 (MAPK7 [6]) | SMILES | ERBB2 degradation (ERBB2)
1 | < 100 nM | < 100 nM | 100 to 1000 nM | – | – | – | – | – | CCOc1cc(N2CCC(OCC(=O)NCCOCCN3CCN(Cc4ccc(-n5c(O)nnc5-c5cc(C(C)C)c(O)cc5O)cc4)CC3)CC2)ccc1Nc1ncc2c(n1)N(C)c1ccccc1C(=O)N2C [Compound 002, N-(2-(2-(4-(4-(3-(2,4-dihydroxy-5-isopropylphenyl)-5-hydroxy-4H-1,2,4-triazol-4-yl)benzyl)piperazin-1-yl)ethoxy)ethyl)-2-((1-(4-((5,11-dimethyl-6-oxo-6,11-dihydro-5H-benzo[e]pyrimido[5,4-b][1,4]diazepin-2-yl)amino)-3-ethoxyphenyl)piperidin-4-yl)oxy)acetamide] | B (DC50 = 100-1000 nM)
2 | 100 to 1000 nM | < 100 nM | < 100 nM | C (< 33% degradation) | C (< 33% degradation) | A (>66% degradation) | – | – | CCOc1cc(N2CCC(C(=O)NCCOCc3ccc(-n4c(O)nnc4-c4cc(C(C)C)c(O)cc4O)cc3)CC2)ccc1Nc1ncc2c(n1)N(C)c1ccccc1C(=O)N2C [Compound 005, N-(2-((4-(3-(2,4-dihydroxy-5-isopropylphenyl)-5-hydroxy-4H-1,2,4-triazol-4-yl)benzyl)oxy)ethyl)-1-(4-((5,11-dimethyl-6-oxo-6,11-dihydro-5H-benzo[e]pyrimido[5,4-b][1,4]diazepin-2-yl)amino)-3-ethoxyphenyl)piperidine-4-carboxamide] | B (DC50 = 100-1000 nM)
3 | 100 to 1000 nM | < 100 nM | 100 to 1000 nM | – | – | – | – | – | CCOc1cc(N2CCC(C(=O)NCCOc3cccc(CN(C)Cc4ccc(-n5c(O)nnc5-c5cc(C(C)C)c(O)cc5O)cc4)c3)CC2)ccc1Nc1ncc2c(n1)N(C)c1ccccc1C(=O)N2C [Compound 007, N-(2-(3-(((4-(3-(2,4-dihydroxy-5-isopropylphenyl)-5-hydroxy-4H-1,2,4-triazol-4-yl)benzyl)(methyl)amino)methyl)phenoxy)ethyl)-1-(4-((5,11-dimethyl-6-oxo-6,11-dihydro-5H-benzo[e]pyrimido[5,4-b][1,4]diazepin-2-yl)amino)-3-ethoxyphenyl)piperidine-4-carboxamide] | B (DC50 = 100-1000 nM)

More lines, now with the values behind:

Row | SMILES | IC50 (HSP90α protein [1]) | EC50 [2] | EC50 [3] | MAPK7 degradation (30 nM) (MAPK7 [4]; 30 nM) | MAPK7 degradation (100 nM) (MAPK7 [4]; 100 nM) | MAPK7 degradation (1000 nM) (MAPK7 [4]; 1000 nM) | IC50 (HSP90α protein [5]) | IC50 (MAPK7 [6]) | ERBB2 degradation (ERBB2)
4 | CCOc1cc(N2CCC(C(=O)N3CCC(COc4ccc(Nc5cc(-n6nc(C(F)(F)F)c7c6CC(C)(C)CC7=O)ccc5C(N)=O)cc4)CC3)CC2)ccc1Nc1ncc2c(n1)N(S(C)(=O)=O)c1ccccc1C(=O)N2C [Compound 110, 4-(6,6-dimethyl-4-oxo-3-(trifluoromethyl)-4,5,6,7-tetrahydro-1H-indazol-1-yl)-2-((4-((1-(1-(3-ethoxy-4-((5-methyl-11-(methylsulfonyl)-6-oxo-6,11-dihydro-5H-benzo[e]pyrimido[5,4-b][1,4]diazepin-2-yl)amino)phenyl)piperidine-4-carbonyl)piperidin-4-yl)methoxy)phenyl)amino)benzamide] | – | > 1000 nM | > 1000 nM | – | – | – | > 1000 nM | > 1000 nM | –
5 | CCOc1cc(N2CCC(C(=O)NCCOCCNC(=O)O[C@H]3CC[C@H](Nc4cc(-n5nc(C(F)(F)F)c6c5CC(C)(C)CC6=O)ccc4C#N)CC3)CC2)ccc1Nc1ncc2c(n1)N(S(C)(=O)=O)c1ccccc1C(=O)N2C [Compound 111, (1R,4R)-4-((2-((12-azanylidene)-l3-methyl)-5-(6,6-dimethyl-4-oxo-3-(trifluoromethyl)-4,5,6,7-tetrahydro-1H-indazol-1-yl)phenyl)amino)cyclohexyl (2-(2-(1-(3-ethoxy-4-((5-methyl-11-(methylsulfonyl)-6-oxo-6,11-dihydro-5H-benzo[e]pyrimido[5,4-b][1,4]diazepin-2-yl)amino)phenyl)piperidine-4-carboxamido)ethoxy)ethyl)carbamate] | – | > 1000 nM | > 1000 nM | – | – | – | > 1000 nM | > 1000 nM | –
6 | CCOc1cc(N2CCC(C(=O)N3CCC(CN4CCN(Cc5ccc(-n6c(O)nnc6-c6cc(C(C)C)c(O)cc6O)cc5)CC4)CC3)CC2)ccc1N(CC)c1ncc2c(n1)N(C)c1ccccc1C(=O)N2C [Compound 133, 2-((4-(4-(4-((4-(4-(3-(2,4-dihydroxy-5-isopropylphenyl)-5-hydroxy-4H-1,2,4-triazol-4-yl)benzyl)piperazin-1-yl)methyl)piperidine-1-carbonyl)piperidin-1-yl)-2-ethoxyphenyl)(ethyl)amino)-5,11-dimethyl-5,11-dihydro-6H-benzo[e]pyrimido[5,4-b][1,4]diazepin-6-one] | – | < 100 nM | 100 to 1000 nM | – | – | – | < 100 nM | > 1000 nM | –
7 | CCNC(=O)c1nnc(-c2cc(CC)c(O)cc2O)n1-c1ccc(CN2CCN(CC3CCN(C(=O)C4CCN(c5ccc(N(CC)c6ncc7c(n6)N(S(C)(=O)=O)c6ccccc6C(=O)N7C)c(OCC)c5)CC4)CC3)CC2)cc1 [Compound 135, 4-(4-((4-((1-(1-(3-ethoxy-4-(ethyl(5-methyl-11-(methylsulfonyl)-6-oxo-6,11-dihydro-5H-benzo[e]pyrimido[5,4-b][1,4]diazepin-2-yl)amino)phenyl)piperidine-4-carbonyl)piperidin-4-yl)methyl)piperazin-1-yl)methyl)phenyl)-N-ethyl-5-(5-ethyl-2,4-dihydroxyphenyl)-4H-1,2,4-triazole-3-carboxamide] | – | < 100 nM | 100 to 1000 nM | – | – | – | < 100 nM | > 1000 nM | –
8 | CCOc1cc(N2CCC(C(=O)N3CCC(CN4CCN(Cc5ccc(-n6c(C(=O)NC(C)C(F)(F)F)nnc6-c6cc(CC)c(O)cc6OC)cc5)CC4)CC3)CC2)ccc1Nc1ncc2c(n1)N(S(C)(=O)=O)c1ccccc1C(=O)N2C (centres unmarked) [Compound 142, 4-(4-((4-((1-(1-(3-ethoxy-4-((5-methyl-11-(methylsulfonyl)-6-oxo-6,11-dihydro-5H-benzo[e]pyrimido[5,4-b][1,4]diazepin-2-yl)amino)phenyl)piperidine-4-carbonyl)piperidin-4-yl)methyl)piperazin-1-yl)methyl)phenyl)-5-(5-ethyl-4-hydroxy-2-methoxyphenyl)-N-(1,1,1-trifluoropropan-2-yl)-4H-1,2,4-triazole-3-carboxamide] | – | – | – | – | – | – | – | 100 to 1000 nM | –
